Experimental data published in the NIST ThermoML archive (doi:10.1016/j.jct.2013.08.034).

Assay: xn = mol fraction of the nth substance listed
Conditions: 101 kPa, Liquid; for mass density: Vibrating tube method; for electrical conductivity: Conductivity Meter Jenco 3107; for viscosity: Cone and plate viscometry

CC1COC(=O)O1 (configuration not stated) [4-methyl-1,3-dioxolan-2-one] + CCCC[n+]1ccn(C)c1.O=S(=O)([N-]S(=O)(=O)C(F)(F)F)C(F)(F)F
Conditions	electrical conductivity [S/m]	mass density [kg/m3]	viscosity [mPa·s]
298.15 K, x2 = 0.898	–	1427.78	–
303.15 K, x2 = 0	–	–	2.44
303.15 K, x2 = 0.0146	–	1205.11	–
303.15 K, x2 = 0.0296	–	1216.01	–
303.15 K, x2 = 0.0453	–	1226.7	–
303.15 K, x2 = 0.0502	0.963	–	–
303.15 K, x2 = 0.0616	–	1237.2	–
303.15 K, x2 = 0.0732	–	1244.2	–
303.15 K, x2 = 0.0997	–	1259.1	–
303.15 K, x2 = 0.1	–	–	3.84
303.15 K, x2 = 0.1004	1.16	–	–
303.15 K, x2 = 0.2001	1.35	–	–
303.15 K, x2 = 0.2002	–	–	5.81
303.15 K, x2 = 0.2004	–	1303.96	–
303.15 K, x2 = 0.3002	1.21	–	–
303.15 K, x2 = 0.3007	–	–	8.07
303.15 K, x2 = 0.3081	–	1338.4	–
303.15 K, x2 = 0.3998	–	–	10.8
303.15 K, x2 = 0.4004	–	1360.5	–
303.15 K, x2 = 0.4005	1.07	–	–
303.15 K, x2 = 0.5004	–	–	14.41
303.15 K, x2 = 0.5007	0.963	–	–
303.15 K, x2 = 0.5021	–	1379.5	–
303.15 K, x2 = 0.5839	–	1391.7	–
303.15 K, x2 = 0.6002	–	–	18.4
303.15 K, x2 = 0.6003	0.86	–	–
303.15 K, x2 = 0.6902	–	1404.6	–
303.15 K, x2 = 0.6979	–	–	22.9
303.15 K, x2 = 0.6989	0.764	–	–
303.15 K, x2 = 0.7989	–	1415.1	–
303.15 K, x2 = 0.8001	0.665	–	–
303.15 K, x2 = 0.8015	–	–	28.81
303.15 K, x2 = 0.8959	0.563	–	33.59
303.15 K, x2 = 0.898	–	1422.88	–
308.15 K, x2 = 0	–	–	2.23
308.15 K, x2 = 0.0146	–	1199.79	–
308.15 K, x2 = 0.0296	–	1210.69	–
308.15 K, x2 = 0.0453	–	1221.41	–
308.15 K, x2 = 0.0502	1.05	–	–
308.15 K, x2 = 0.0616	–	1231.88	–
308.15 K, x2 = 0.0732	–	1238.89	–
308.15 K, x2 = 0.0997	–	1253.78	–
308.15 K, x2 = 0.1	–	–	3.51
308.15 K, x2 = 0.1004	1.3	–	–
308.15 K, x2 = 0.2001	1.51	–	–
308.15 K, x2 = 0.2002	–	–	5.1
308.15 K, x2 = 0.2004	–	1298.88	–
308.15 K, x2 = 0.3002	1.36	–	–
308.15 K, x2 = 0.3007	–	–	7.11
308.15 K, x2 = 0.3081	–	1333.39	–
308.15 K, x2 = 0.3998	–	–	9.42
308.15 K, x2 = 0.4004	–	1355.48	–
308.15 K, x2 = 0.4005	1.22	–	–
308.15 K, x2 = 0.5004	–	–	12.36
308.15 K, x2 = 0.5007	1.1	–	–
308.15 K, x2 = 0.5021	–	1374.5	–
308.15 K, x2 = 0.5839	–	1386.81	–
308.15 K, x2 = 0.6002	–	–	15.75
308.15 K, x2 = 0.6003	0.972	–	–
308.15 K, x2 = 0.6902	–	1399.67	–
308.15 K, x2 = 0.6979	–	–	19.44
308.15 K, x2 = 0.6989	0.859	–	–
308.15 K, x2 = 0.8001	0.755	–	–
308.15 K, x2 = 0.8015	–	–	24.1
308.15 K, x2 = 0.8959	0.642	–	27.95
